Experimental data taken from US20120190743A1, “COMPOUNDS FOR TREATING DISORDERS OR DISEASES ASSOCIATED WITH NEUROKININ 2 RECEPTOR ACTIVITY” (UNITED PARAGON ASSOCIATES INC., priority 2009, published 2012).

Key:
[1] = molecular target: T1, human NK2 receptor (Homo sapiens, UniProt P21452); test: [125I]neurokinin A radioligand binding assay, CHO cells expressing recombinant human NK2 receptor; conditions: various concentrations
T1 construct: expressed in transfected cells; host or cells: Chinese Hamster Ovary (CHO) cells
T1 sequence (P21452 1-398): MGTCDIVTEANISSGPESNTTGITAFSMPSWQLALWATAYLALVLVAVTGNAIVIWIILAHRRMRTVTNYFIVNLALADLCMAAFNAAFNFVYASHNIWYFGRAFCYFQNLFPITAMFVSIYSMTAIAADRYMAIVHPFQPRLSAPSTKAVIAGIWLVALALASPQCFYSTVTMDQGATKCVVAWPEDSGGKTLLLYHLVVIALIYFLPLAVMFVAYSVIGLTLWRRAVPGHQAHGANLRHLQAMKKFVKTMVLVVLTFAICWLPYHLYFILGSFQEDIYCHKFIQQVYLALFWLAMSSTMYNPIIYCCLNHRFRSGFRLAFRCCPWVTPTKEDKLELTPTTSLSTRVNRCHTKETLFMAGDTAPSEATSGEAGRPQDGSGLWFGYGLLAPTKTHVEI
Description: The contents of Formulation A capsules were dissolved using various solvents and extracted using four different processes, as described in detail below. […] These isolates were called: Sample #19 Top Isolate, Sample #19 Bottom Isolate, Sample #20 Top Isolate, Sample #20 Bottom Isolate, Fraction X Isolate and Sample #2 Isolate. These isolates were then each tested in the radioligand binding assay.

[2] = molecular target: T1, human NK2 receptor; test: Cellular/functional Ca2+ flux antagonist assay, CHO-K1 cells expressing recombinant human NK2 receptor; type: cell-based; conditions: 3×10^−7 M to 1×10^−4 M, agonist [bAla]-NKA (4-10) 0.3 nM, FIG. 12
Description: 6-methyl-myristic acid 2,3-dihydroxypropyl ester was synthesized as described above, and myristic acid 2,3-dihydroxypropyl ester was obtained. They were each prepared as solutions by addition of dimethyl sulfoxide (DMSO) to a concentration of 10 mM. These compounds were then used in cellular/functional calcium flux agonist and antagonist assays to determine the effect the compounds have on human NK2 receptor activity as measured by changes intracellular calcium measurements. These assays were carried out based on the method of Gerard et al.
The NK2 receptor antagonist assay was performed essentially as follows. CHO-K1 cells stably expressing recombinant human NK2 receptor were plated on mixed extracellular matrix overnight in complete media. One hour before the assay, the media was replaced with Hank's Buffered Salt Solution (HBSS) containing 0.1% bovine serum albumin. The cells were then loaded with dye that measures intracellular calcium and baseline measurements of intracellular calcium were taken. […] Fluorescence at 485 nm excitation/515 nm emission was measured every 2 seconds for at least two minutes. The peak height of fluorescence in each of the wells receiving controls, compound 2 or compound 3 was recorded and compared to the peak height of fluorescence in the wells receiving only the agonist. […]

Compound | effect on neurokinin A binding to the NK2 receptor (in words) [1] | antagonist activity in functional NK2 receptor antagonist assay (in words) [2]
CCCCCCCCCCCCCC(=O)OCC(O)CO (stereo not shown) [myristic acid 2,3-dihydroxypropyl ester] | inhibited the ability of neurokinin A to bind the NK2 receptor | displayed antagonist activity
CCCCCCCCC(C)CCCCC(=O)OCC(O)CO (stereo not shown) [6-methyl-myristic acid 2,3-dihydroxypropyl ester] | inhibited the ability of neurokinin A to bind the NK2 receptor in a concentration-dependent manner | displayed antagonist activity
